Read-outs that look alike come from different tables or passages of the source.
How the values were obtained:
[1] = tested on: bronchial tubes; test: Inhibition of histamine contraction of bronchial tubes (relaxation of bronchial tubes); details: Cavia porcellus; guinea pig bronchial tube, 10 μM histamine; Table 16; read-out: ED50 (50% decrease of histamine contraction of bronchial tubes)
[2] = tested on: femoral artery; test: Blood flow increase of femoral artery in anesthetized dogs, i.v.; format: in vivo, dog (mongrel); details: Canis lupus familiaris, iv; for change in vivo at 0.3 mg/kg: read-out: Increase in femoral artery blood flow
Protocol: (§1) 2. Blood Flow Increase of Coronary, Vertebral and Femoral Arteries
(§2) A plethysmographic probe (manufactured and sold by NIHON KODEN CO., LTD., Japan) was mounted on the coronary, vertebral and femoral arteries, and blood flow was measured by means of an electromagnetic blood flowmeter (type:MF-27, manufactured and sold by NIHON KODEN CO., LTD., Japan). Under these conditions, the compounds of the present invention were intravenously administered through a polyethylene tube inserted to a femoral veinlet, and the change in blood flow was measured for 30 minutes by means of the electromagnetic blood flowmeter.
(§3) The effects (dilation of the arteries) of the compounds of the present invention on blood flow in coronary, vertebral and femoral arteries were examined according to the method as mentioned hereinbefore.

[3] = tested on: coronary artery; test: Blood flow increase of coronary artery in anesthetized dogs, i.v.; format: in vivo, dog (mongrel); details: Canis lupus familiaris, iv; for change in vivo at 0.3 mg/kg: read-out: Increase in coronary artery blood flow
Protocol: as §1, §2, §3

[4] = tested on: mesenteric artery; test: Relaxation of mesenteric artery (KCl-contracted); details: Oryctolagus cuniculus; rabbit mesenteric artery contracted with 15 to 20 mM KCl; read-out: ED50 (concentration attaining 50% of complete relaxation)
[5] = Acute toxicity in mice; details: mouse, in vivo, male mice
Protocol: (§4) Using ddY male mice and Wistar male rats, the acute toxicity of the compounds of the present invention was examined with respect to LD50 according to the method proposed by K. Takagi et al. (K. Takagi and H. Ozawa, "Expeprimental Techniques in Pharmacology," p200-206 (1960), NANZANDO CO., LTD., Japan).
(§5) Compounds of the present invention were tested with respect to acute toxicities according to the method as mentioned hereinbefore.

[6] = tested on: vertebral artery; test: Blood flow increase of vertebral artery in anesthetized dogs, i.v.; format: in vivo, dog (mongrel); details: Canis lupus familiaris, iv; for change in vivo at 0.3 mg/kg: read-out: Increase in vertebral artery blood flow
Protocol: as §1, §2, §3

[7] = Acute toxicity in rats; details: in vivo, male rat
Protocol: as §4, §5

| Structure (SMILES) | EC50 [1] [µM] | change in vivo at 1 mg/kg ([2]; dog) [%] | change in vivo at 1 mg/kg ([3]; dog) [%] | EC50 [4] [µM] | LD50 ([5]; iv) [mg/kg] | change in vivo at 1 mg/kg ([6]; dog) [%] | change in vivo at 0.3 mg/kg ([2]; dog, i.v., 0.3 mg/kg) [%] | change in vivo at 0.3 mg/kg ([3]; dog, i.v., 0.3 mg/kg) [%] | change in vivo at 0.3 mg/kg ([6]; dog, i.v., 0.3 mg/kg) [%] | LD50 ([7]; iv) [mg/kg] | LD50 ([7]; po) [mg/kg] | LD50 ([5]; po) [mg/kg] | change in vivo at 0.3 mg/kg [2] [%] | change in vivo at 0.3 mg/kg [3] [%] | change in vivo at 0.3 mg/kg [6] [%] |
| --- | --- | --- | --- | --- | --- | --- | --- | --- | --- | --- | --- | --- | --- | --- | --- |
| NC1CCCN(S(=O)(=O)c2cccc3c(O)nccc23)C1 (centres unmarked) [Compound (84), 1-(1-hydroxy-5-isoquinolinesulfonyl)-3-aminopiperidine] | 8 | 27 | 74 | 13 | 141 | 51 |  |  |  |  |  |  |  |  |  |
| O=S(=O)(c1cccc2cnccc12)N1CCNCC1 [Comparative Compound No. 3, 1(5-Isoquinolinesulfonyl)piperazine, reference compound] |  | 69 | 70 |  |  | 98 |  |  |  |  |  |  |  |  |  |
| CCCCN(CCN)S(=O)(=O)c1cccc2cnccc12 [Compound (3), N-(2-aminoethyl)-N-butyl-5-isoquinolinesulfonamide] | 5 |  |  | 2 | 105 |  | 25 | 134 | 130 |  |  |  |  |  |  |
| NC1CCCN(S(=O)(=O)c2cccc3cnccc23)C1 (centres unmarked) [Compound (63), 1-(5-isoquinolinesulfonyl)-3-aminopiperidine] | 3 | 38 | 128 | 3 | 176 | 95 | 20 | 91 | 72 | 194 | 1220 | 1120 |  |  |  |
| CCCCCCNCCN(CC)S(=O)(=O)c1cccc2cnccc12 [Compound (28), N-ethyl-N-(2-hexylaminoethyl)-5-isoquinolinesulfonamide] | 9 |  |  | 10 | 145 |  | 31 | 114 | 110 |  |  |  |  |  |  |
| CCCCCCNC1CCCN(S(=O)(=O)c2cccc3cnccc23)C1 (centres unmarked) [Compound (71), 1-(5-isoquinolinesulfonyl)-3-hexylaminopiperidine] | 10 | 35 | 102 | 4 |  | 85 |  |  |  |  |  |  |  |  |  |
| CCCCCCN(CCN)S(=O)(=O)c1cccc2cnccc12 [Compound (4), N-(2-aminoethyl)-N-hexyl-5-isoquinolinesulfonamide] | 3 |  |  | 1 | 95 |  | 38 | 188 | 170 | 131 | 968 | 1100 |  |  |  |
| O=S(=O)(c1cccc2cnccc12)N1CCCNCC1 [Comparative Compound No. 1, 1(5-Isoquinolinesulfonyl)homopiperazine, reference compound] |  |  |  |  |  |  | 48 | 89 | 160 |  |  |  |  |  |  |
| O=S(=O)(c1cccc2c(O)nccc12)N1CCCNCC1 [Comparative Compound No. 2, 1(1-Hydroxy-5-isoquinolinesulfonyl)-homopiperazine, reference compound] |  |  |  |  |  |  |  |  |  |  |  |  | 30 | 27 | 48 |

Reference: patent US4798897A, “Isoquinoline derivatives” (Asahi Kasei Kogyo Kabushiki Kaisha, priority 1987, dated 1989)
